pIC50: −log10 of the molar value.

The test system of data set [1] is Rattus norvegicus. The data set is described as follows: Activity against non high density lipoprotein cholesterol level in obese female Zucker rat serum after 2 weeks at 100 mg/kg (percent change from pre-treatment). The data set is classed as functional.
The subject of data set [2] is Rattus norvegicus. The data set is described as follows: Activity against non high density lipoprotein cholesterol level in obese female Zucker rat serum after 1 week at 100 mg/kg (percent change from pre-treatment). The data set is classed as functional.
In data set [3] the test system is Rattus norvegicus. The data set is described as follows: Activity against triglyceride level in obese female Zucker rat serum after 1 week at 100 mg/kg (percent change from pre-treatment). It is filed as functional.
Data set [4] relates to Rattus norvegicus. The data set is described as follows: Tolerability of compound upto 2000 mg/kg. It is filed as organism-based. Further details: dose 2000 mg/kg; call rule not given here. Conditions: in vivo.
The test system of data set [5] is Rattus norvegicus. As to the kind of experiment: Activity against high density lipoprotein cholesterol level in obese female Zucker rat serum after 1 week at 100 mg/kg (percent change from pre-treatment). The data set is classed as functional.
For data set [6], the system named is Hepatocyte. As to the kind of experiment: Inhibition of lipid synthesis in primary rat hepatocytes by incorporation radiolabeled acetate into cellular lipids. It is filed as functional, cell-based, Sprague-Dawley. The conditions noted are these: for pIC50: Rattus norvegicus, Sprague-Dawley, Hepatocyte, read-out: IC50; for IC50: hepatocyte.
In data set [7] the test system is Rattus norvegicus. The data set is described as follows: Activity against triglyceride level in obese female Zucker rat serum after 2 weeks at 100 mg/kg (percent change from pre-treatment). It is filed as functional.
The test system of data set [8] is Rattus norvegicus. As to the kind of experiment: Activity against high density lipoprotein cholesterol level in obese female Zucker rat serum after 2 weeks at 100 mg/kg (percent change from pre-treatment). It is filed as functional.
Data set [9] has as its system Rattus norvegicus. As to the kind of experiment: Activity against triglyceride level in obese female Zucker rat serum after 1 week at 30 mg/kg (percent change from pre-treatment). It is filed as functional.
The subject of data set [10] is Rattus norvegicus. The data set is described as follows: Activity against triglyceride level in obese female Zucker rat serum after 2 weeks at 30 mg/kg (percent change from pre-treatment). It is filed as functional.
The test system of data set [11] is Rattus norvegicus. As to the kind of experiment: Activity against non high density lipoprotein cholesterol level in obese female Zucker rat serum after 2 weeks at 30 mg/kg (percent change from pre-treatment). The data set is classed as functional.
Data set [12] deals with Rattus norvegicus. The data set is described as follows: Activity against high density lipoprotein cholesterol level in obese female Zucker rat serum after 1 week at 30 mg/kg (percent change from pre-treatment). The data set is classed as functional.
Data set [13] deals with Rattus norvegicus. As to the kind of experiment: Activity against high density lipoprotein cholesterol level in obese female Zucker rat serum after 2 weeks at 30 mg/kg (percent change from pre-treatment). The data set is classed as functional.
Data set [14] deals with Rattus norvegicus. The data set is described as follows: Activity against non high density lipoprotein cholesterol level in obese female Zucker rat serum after 1 week at 30 mg/kg (percent change from pre-treatment). The data set is classed as functional.
For data set [15], the system named is Rattus norvegicus. The data set is described as follows: Activity against triglyceride level in obese female Zucker rat serum after 2 weeks at 53 mg/kg (percent change from pre-treatment). The data set is classed as functional.
The subject of data set [16] is Rattus norvegicus. As to the kind of experiment: Activity against high density lipoprotein cholesterol level in obese female Zucker rat serum after 1 week at 53 mg/kg (percent change from pre-treatment). It is filed as functional.
Data set [17] concerns Rattus norvegicus. The data set is described as follows: Activity against high density lipoprotein cholesterol level in obese female Zucker rat serum after 2 weeks at 53 mg/kg (percent change from pre-treatment). The data set is classed as functional.
Data set [18] relates to Rattus norvegicus. As to the kind of experiment: Activity against non high density lipoprotein cholesterol level in obese female Zucker rat serum after 2 weeks at 53 mg/kg (percent change from pre-treatment). The data set is classed as functional.
The subject of data set [19] is Rattus norvegicus. The data set is described as follows: Activity against triglyceride level in obese female Zucker rat serum after 1 week at 53 mg/kg (percent change from pre-treatment). The data set is classed as functional.
For data set [20], the system named is Rattus norvegicus. As to the kind of experiment: Activity against non high density lipoprotein cholesterol level in obese female Zucker rat serum after 1 week at 53 mg/kg (percent change from pre-treatment). It is filed as functional.
For data set [21], the system named is Rattus norvegicus. The data set is described as follows: Activity against non high density lipoprotein cholesterol level in obese female Zucker rat serum after 1 week at 80 mg/kg (percent change from pre-treatment). The data set is classed as functional.
Data set [22] deals with Rattus norvegicus. The data set is described as follows: Activity against non high density lipoprotein cholesterol level in obese female Zucker rat serum after 2 weeks at 80 mg/kg (percent change from pre-treatment). It is filed as functional.
The subject of data set [23] is Rattus norvegicus. As to the kind of experiment: Activity against high density lipoprotein cholesterol level in obese female Zucker rat serum after 2 weeks at 80 mg/kg (percent change from pre-treatment). It is filed as functional.
Data set [24] concerns Rattus norvegicus. The data set is described as follows: Activity against triglyceride level in obese female Zucker rat serum after 2 weeks at 80 mg/kg (percent change from pre-treatment). It is filed as functional.
Data set [25] has as its system Rattus norvegicus. The data set is described as follows: Activity against triglyceride level in obese female Zucker rat serum after 1 week at 80 mg/kg (percent change from pre-treatment). It is filed as functional.
The subject of data set [26] is Rattus norvegicus. The data set is described as follows: Activity against high density lipoprotein cholesterol level in obese female Zucker rat serum after 1 week at 80 mg/kg (percent change from pre-treatment). The data set is classed as functional.

Consider `CC(C)(CO)CCCCOCCCCC(C)(C)CO`, for which the Activity in data set [1] is 11%; in data set [2] it was -38%; in [3] it was -77%; in data set [4] it was “Active”; in [5] it was 234%; in data set [7], -71%. Further, the Activity in data set [8] was 366%. The negative-log IC50 (pIC50) in data set [6] is 4.97.

Regarding `CC(=O)C(CCCCC(C)(C)CO)CCCCC(C)(C)CO`, the Activity in data set [9] was -6%; in [10], 22%; in data set [11], 52%; in [12], -14%; in data set [13], -19%; in data set [14], 15%. Moreover, the pIC50 in data set [6] was 4.34.

`CC(C)(CO)CCCCNCCCCC(C)(C)CO`: the Activity in [15] is recorded as -32%; in [16], -23%; in data set [17], 16%; in [18], -10%; in [19] it was -24%; in data set [20] it was 78%. In addition, the IC50 result in data set [6] is recorded as “Not Active”.

Turning to `CC(C)(CO)CCCCN(O)CCCCC(C)(C)CO`, the Activity is on record as -26% in data set [9]; 13% in [10]; -5% in data set [11]; 27% in data set [12]; 19% in data set [13]; -40% in [14]. Also, in data set [6], the negative-log IC50 (pIC50) was 4.20.

For `CC(C)(CO)CCCSCCCC(C)(C)CO`, the Activity in [9] was -51%; in data set [10] it was -34%; in [11] it was -14%; in [12], 54%; in data set [13], 40%; in data set [14], -40%. Moreover, the pIC50 in data set [6] is 4.82.

With `CC(C)(CO)CCCCOP(=O)(O)OCCCCC(C)(C)CO`, the Activity is listed as -29% in data set [21]; -17% in data set [22]; 8% in data set [23]; -13% in data set [24]; -10% in data set [25]; 27% in [26]. Further, the IC50 entry in [6] is on record as “Not Active”.

Turning to `CC(C)(CO)CCCCNC(=O)CCCCC(C)(C)CO`, the Activity in data set [9] is recorded as -20%; in [10], -10%; in [11], -7%; in data set [12], 2%; in [13], 20%; in data set [14], -21%. Further, the IC50 result in data set [6] is recorded as “Not Active”.

Take `CC(CO)(CCC[S+]([O-])CCCC(C)(CO)c1ccccc1)c1ccccc1` (configuration not stated): the Activity was 68% in [21]; 81% in data set [22]; -36% in [23]; 41% in [24]; 18% in data set [25]; -23% in data set [26]. For the same molecule, the IC50 result in [6] was “Not Active”.

These data come from ChEMBL document CHEMBL1148579, “Influence of various central moieties on the hypolipidemic properties of long hydrocarbon chain diols and diacids” (J Med Chem, 2006).
